Measured values taken from patent publication US10344060B2 (priority 2013, dated 2019).

molecular target: hNav1.7 (Homo sapiens, UniProt Q15858); experiment: cell-based; format: cell-based; settings: PatchXpress, tonic; Table 11; read-out: PX hNav1.7 Tonic IC50
Sequence (Q15858 whole entry): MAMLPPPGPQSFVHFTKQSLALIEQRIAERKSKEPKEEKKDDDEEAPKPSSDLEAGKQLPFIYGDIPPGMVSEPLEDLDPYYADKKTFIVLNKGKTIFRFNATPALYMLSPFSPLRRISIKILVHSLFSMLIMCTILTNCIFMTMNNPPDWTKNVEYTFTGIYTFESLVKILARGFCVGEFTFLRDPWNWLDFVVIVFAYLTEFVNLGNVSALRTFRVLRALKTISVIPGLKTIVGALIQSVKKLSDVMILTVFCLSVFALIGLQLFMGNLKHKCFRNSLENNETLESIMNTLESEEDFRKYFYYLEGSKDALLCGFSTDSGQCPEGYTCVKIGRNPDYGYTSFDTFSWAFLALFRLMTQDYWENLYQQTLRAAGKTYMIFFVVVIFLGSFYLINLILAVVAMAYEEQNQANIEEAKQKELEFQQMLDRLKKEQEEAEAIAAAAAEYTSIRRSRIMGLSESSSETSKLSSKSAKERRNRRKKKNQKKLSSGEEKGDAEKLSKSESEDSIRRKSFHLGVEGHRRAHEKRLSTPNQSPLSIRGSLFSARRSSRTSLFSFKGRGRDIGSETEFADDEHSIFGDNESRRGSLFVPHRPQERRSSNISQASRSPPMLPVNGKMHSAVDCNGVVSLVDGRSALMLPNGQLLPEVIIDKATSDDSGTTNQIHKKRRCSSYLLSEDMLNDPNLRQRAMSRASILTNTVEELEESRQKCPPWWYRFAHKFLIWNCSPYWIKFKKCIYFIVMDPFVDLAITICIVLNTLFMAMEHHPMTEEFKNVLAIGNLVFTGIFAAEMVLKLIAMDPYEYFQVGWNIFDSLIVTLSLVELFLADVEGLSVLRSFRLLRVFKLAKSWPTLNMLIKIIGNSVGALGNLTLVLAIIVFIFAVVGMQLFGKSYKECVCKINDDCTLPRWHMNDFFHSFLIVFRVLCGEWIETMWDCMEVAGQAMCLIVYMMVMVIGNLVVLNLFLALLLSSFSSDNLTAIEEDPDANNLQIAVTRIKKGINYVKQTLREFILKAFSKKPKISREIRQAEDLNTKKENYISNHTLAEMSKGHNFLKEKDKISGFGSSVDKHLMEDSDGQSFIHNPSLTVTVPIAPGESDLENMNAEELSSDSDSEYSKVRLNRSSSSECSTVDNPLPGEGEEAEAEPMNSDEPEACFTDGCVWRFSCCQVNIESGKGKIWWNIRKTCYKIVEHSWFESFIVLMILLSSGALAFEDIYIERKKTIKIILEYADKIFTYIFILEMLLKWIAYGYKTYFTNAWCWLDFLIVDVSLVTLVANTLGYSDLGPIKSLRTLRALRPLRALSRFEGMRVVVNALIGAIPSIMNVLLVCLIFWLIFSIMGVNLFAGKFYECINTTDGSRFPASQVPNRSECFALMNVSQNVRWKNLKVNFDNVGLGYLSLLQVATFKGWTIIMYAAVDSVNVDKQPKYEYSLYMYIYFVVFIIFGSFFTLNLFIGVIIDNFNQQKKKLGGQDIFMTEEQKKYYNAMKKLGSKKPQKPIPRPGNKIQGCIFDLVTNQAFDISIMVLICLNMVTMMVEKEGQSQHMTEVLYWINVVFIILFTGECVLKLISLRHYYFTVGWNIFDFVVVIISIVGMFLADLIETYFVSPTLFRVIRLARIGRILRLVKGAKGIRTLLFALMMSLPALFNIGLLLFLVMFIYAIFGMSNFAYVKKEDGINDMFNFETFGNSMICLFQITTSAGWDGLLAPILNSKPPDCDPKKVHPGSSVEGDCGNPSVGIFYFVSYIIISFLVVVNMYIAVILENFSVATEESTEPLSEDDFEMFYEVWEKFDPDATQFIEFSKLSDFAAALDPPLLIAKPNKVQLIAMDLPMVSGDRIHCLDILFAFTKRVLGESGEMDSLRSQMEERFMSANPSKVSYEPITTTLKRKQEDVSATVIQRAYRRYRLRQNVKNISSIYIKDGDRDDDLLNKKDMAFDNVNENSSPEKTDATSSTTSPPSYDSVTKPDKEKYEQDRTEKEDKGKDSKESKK

Structure (SMILES)	IC50 [µM]
CC[C@H](C)[C@H](NC(=O)[C@@H](NC(=O)[C@H](CCCCN)NC(=O)[C@H](CCC(=O)O)NC(=O)[C@@H]1CSSC[C@@H]2NC(=O)[C@H](C)NC(=O)[C@H](CCCNC(=N)N)NC(=O)[C@H](CCCCN)NC(=O)[C@H](CO)NC(=O)[C@H](CC(=O)O)NC(=O)[C@@H]3CSSC[C@H](NC(=O)[C@H](CCCNC(=N)N)NC(=O)[C@H](CC(C)C)NC(=O)CNC(=O)[C@H](CCC(=O)O)NC(=O)[C@H](CSSC[C@H](NC(=O)[C@@H](N)Cc4ccc(O)cc4)C(=O)N[C@@H](CCC(N)=O)C(=O)N[C@@H](CCCCN)C(=O)N[C@@H](Cc4c[nH]c5ccccc45)C(=O)N[C@@H](CCSC)C(=O)N[C@@H](Cc4c[nH]c5ccccc45)C(=O)N[C@@H]([C@@H](C)O)C(=O)N3)NC2=O)C(=O)N[C@@H](CCCCN)C(=O)N[C@@H](CC(C)C)C(=O)N[C@@H](Cc2c[nH]c3ccccc23)C(=O)N1)[C@@H](C)CC)C(N)=O [compound 67]	> 1

same assay, conditions: Table 12; PatchXpress, tonic block; read-out: PX hNav1.7 Tonic IC50

Structure (SMILES)	IC50 [µM]
C#CC[C@H](N)C(=O)N[C@@H](Cc1ccc(O)cc1)C(=O)N[C@H]1CSSC[C@@H]2NC(=O)[C@@H]3CSSC[C@@H](C(=O)N[C@@H](CCCNC(=N)N)C(=O)N[C@@H](CCCCN)C(=O)N[C@@H](CCC(=O)O)C(=O)N[C@H](C(N)=O)[C@@H](C)CC)NC(=O)[C@H](Cc4c[nH]c5ccccc45)NC(=O)[C@H](CC(C)C)NC(=O)[C@H](CCCCN)NC(=O)[C@H](CSSC[C@H](NC(=O)[C@H]([C@@H](C)O)NC(=O)[C@H](Cc4c[nH]c5ccccc45)NC(=O)[C@H](CCCC)NC(=O)[C@H](Cc4ccc5ccccc5c4)NC(=O)[C@H](CCCCN)NC(=O)[C@H](CCC(N)=O)NC1=O)C(=O)N[C@@H](CC(=O)O)C(=O)N[C@@H](CO)C(=O)N[C@@H](CCCCN)C(=O)N[C@@H](CCCNC(=N)N)C(=O)N[C@@H](C)C(=O)N3)NC(=O)[C@H](CCCNC(=N)N)NC(=O)[C@H](CC(C)C)NC(=O)CNC(=O)[C@H](CCC(=O)O)NC2=O [compound 842]	0.0217
C#CC[C@@H]1NC(=O)[C@@H]2CSSC[C@H](NC(=O)[C@H](CCC(=O)O)NC(=O)[C@@H](N)CC#N)C(=O)N[C@@H](CCC(N)=O)C(=O)N[C@@H](CCCCN)C(=O)N[C@@H](Cc3c[nH]c4ccccc34)C(=O)N[C@@H](CCCC)C(=O)N[C@@H](Cc3c[nH]c4ccccc34)C(=O)N[C@@H]([C@@H](C)O)C(=O)N[C@H]3CSSC[C@H](NC(=O)[C@H](CCCNC(=N)N)NC(=O)[C@H](CC(C)C)NC(=O)CNC1=O)C(=O)N[C@@H](CCCCN)C(=O)N[C@@H](CC(C)C)C(=O)N[C@@H](Cc1c[nH]c4ccccc14)C(=O)N[C@H](C(=O)N[C@@H](CCCNC(=N)N)C(=O)N[C@@H](CCCCN)C(=O)N[C@@H](CCC(=O)O)C(=O)N[C@H](C(N)=O)[C@@H](C)CC)CSSC[C@H](NC(=O)[C@H](CCC(=O)O)NC(=O)[C@H](CCCNC(=N)N)NC(=O)[C@H](CCC(=O)O)NC(=O)[C@H](CCC(=O)O)NC(=O)[C@H](CC(=O)O)NC3=O)C(=O)N2 [compound 757]	> 1
C#CC[C@H](N)C(=O)N[C@@H](Cc1ccc(O)cc1)C(=O)N[C@H]1CSSC[C@@H]2NC(=O)[C@@H]3CSSC[C@@H](C(=O)N[C@@H](CCCNC(=N)N)C(=O)N[C@@H](CCCCN)C(=O)N[C@@H](CCC(=O)O)C(=O)N[C@H](C(N)=O)[C@@H](C)CC)NC(=O)[C@H](Cc4c[nH]c5ccccc45)NC(=O)[C@H](CC(C)C)NC(=O)[C@H](CCCCN)NC(=O)[C@H](CSSC[C@H](NC(=O)[C@H]([C@@H](C)O)NC(=O)[C@H](Cc4c[nH]c5ccccc45)NC(=O)[C@H](CCCC)NC(=O)[C@H](Cc4c[nH]c5ccccc45)NC(=O)[C@H](CCCCN)NC(=O)[C@H](CCC(N)=O)NC1=O)C(=O)N[C@@H](CC(=O)O)C(=O)N[C@@H](CO)C(=O)N[C@@H](CCCCN)C(=O)N[C@@H](CCCNC(=N)N)C(=O)N[C@@H](C)C(=O)N3)NC(=O)[C@H](CCCNC(=N)N)NC(=O)[C@H](CCCCN)NC(=O)CNC(=O)[C@H](CCC(=O)O)NC2=O [compound 704]	> 1
C#CC[C@@H]1NC(=O)[C@@H]2CSSC[C@H](NC(=O)[C@H](CCC(=O)O)NC(=O)[C@H](CCC)NC(=O)[C@@H](N)CCC(=O)O)C(=O)N[C@@H](CCC(N)=O)C(=O)N[C@@H](CCCCN)C(=O)N[C@@H](Cc3c[nH]c4ccccc34)C(=O)N[C@@H](CCCC)C(=O)N[C@@H](Cc3c[nH]c4ccccc34)C(=O)N[C@@H]([C@@H](C)O)C(=O)N[C@H]3CSSC[C@H](NC(=O)[C@H](CCCNC(=N)N)NC(=O)[C@H](CC(C)C)NC(=O)CNC1=O)C(=O)N[C@@H](CCCCN)C(=O)N[C@@H](CC(C)C)C(=O)N[C@@H](Cc1c[nH]c4ccccc14)C(=O)N[C@H](C(=O)N[C@@H](CCCNC(=N)N)C(=O)N[C@@H](CCCCN)C(=O)N[C@@H](CCC(=O)O)C(=O)N[C@H](C(N)=O)[C@@H](C)CC)CSSC[C@H](NC(=O)[C@H](C)NC(=O)[C@H](CCCNC(=N)N)NC(=O)[C@H](CCCCN)NC(=O)[C@H](CCC(=O)O)NC(=O)[C@H](CC(=O)O)NC3=O)C(=O)N2 [compound 772]	0.0152

same assay, conditions: ratio of PX tonic IC50 values; Table 11

Structure (SMILES)	Nav1.4/Nav1.7	Nav1.5/Nav1.7
CCCC[C@@H]1NC(=O)[C@H](Cc2c[nH]c3ccccc23)NC(=O)[C@H](CCCCN)NC(=O)[C@H](CCC(N)=O)NC(=O)[C@@H](NC(=O)[C@H](Cc2ccc(O)cc2)NC(=O)[C@@H](N)CCCCNC(=O)CCOCCOCCOCCOCCOCCOCCOCCOCCOCCOCCOCCOCCN)CSSC[C@@H]2NC(=O)[C@@H]3CSSC[C@@H](C(=O)N[C@@H](CCCNC(=N)N)C(=O)N[C@@H](CCCCN)C(=O)N[C@@H](CCC(=O)O)C(=O)N[C@@H](Cc4c[nH]c5ccccc45)C(N)=O)NC(=O)[C@H](Cc4c[nH]c5ccccc45)NC(=O)[C@H](CC(C)C)NC(=O)[C@H](CCCCN)NC(=O)[C@H](CSSC[C@H](NC(=O)[C@H]([C@@H](C)O)NC(=O)[C@H](Cc4c[nH]c5ccccc45)NC1=O)C(=O)N[C@@H](CC(=O)O)C(=O)N[C@@H](CO)C(=O)N[C@@H](CCCCN)C(=O)N[C@@H](CCCNC(=N)N)C(=O)N[C@@H](C)C(=O)N3)NC(=O)[C@H](CCCNC(=N)N)NC(=O)[C@H](CC(C)C)NC(=O)CNC(=O)[C@H](CCC(=O)O)NC2=O [compound 458]	38	202
CCCC[C@@H]1NC(=O)[C@H](Cc2c[nH]c3ccccc23)NC(=O)[C@H](CCCCN)NC(=O)[C@H](CCC(N)=O)NC(=O)[C@@H](NC(=O)[C@H](Cc2ccc(O)cc2)NC(=O)[C@@H](N)CC(C)C)CSSC[C@@H]2NC(=O)[C@@H]3CSSC[C@@H](C(=O)N[C@@H](CCCNC(=N)N)C(=O)N[C@@H](CCCCN)C(=O)N[C@H](C(=O)N[C@H](C(N)=O)[C@@H](C)CC)[C@@H](C)CC)NC(=O)[C@H](Cc4c[nH]c5ccccc45)NC(=O)[C@H](CC(C)C)NC(=O)[C@H](CCCCN)NC(=O)[C@H](CSSC[C@H](NC(=O)[C@H]([C@@H](C)O)NC(=O)[C@H](Cc4c[nH]c5ccccc45)NC1=O)C(=O)N[C@@H](CC(=O)O)C(=O)N[C@@H](CO)C(=O)N[C@@H](CCCCN)C(=O)N[C@@H](CCCNC(=N)N)C(=O)N[C@@H](C)C(=O)N3)NC(=O)[C@H](CCCNC(=N)N)NC(=O)[C@H](CC(C)C)NC(=O)CNC(=O)[C@H](CCC(=O)O)NC2=O [compound 361]	0	0
CCCC[C@@H]1NC(=O)[C@H](Cc2c[nH]c3ccccc23)NC(=O)[C@H](CCCCN)NC(=O)[C@H](CCC(N)=O)NC(=O)[C@@H](NC(=O)[C@H](Cc2ccc(O)cc2)NC(=O)[C@H](CCC)NC(=O)[C@H](N)CC(C)C)CSSC[C@@H]2NC(=O)[C@@H]3CSSC[C@@H](C(=O)N[C@@H](CCCNC(=N)N)C(=O)N[C@@H](CCCCN)C(=O)N[C@@H](CCC(=O)O)C(=O)N[C@H](C(N)=O)[C@@H](C)CC)NC(=O)[C@H](Cc4c[nH]c5ccccc45)NC(=O)[C@H](CC(C)C)NC(=O)[C@H](CCCCN)NC(=O)[C@H](CSSC[C@H](NC(=O)[C@H]([C@@H](C)O)NC(=O)[C@H](Cc4c[nH]c5ccccc45)NC1=O)C(=O)N[C@@H](CC(=O)O)C(=O)N[C@@H](CO)C(=O)N[C@@H](CCCCN)C(=O)N[C@@H](CCCNC(=N)N)C(=O)N[C@@H](C)C(=O)N3)NC(=O)[C@H](CCCNC(=N)N)NC(=O)[C@H](CC(C)C)NC(=O)CNC(=O)[C@H](CCCCNC(=O)CCOCCOCCOCCOCCOCCOCCOCCOCCOCCOCCOCCOCCN)NC2=O [compound 473]	34	180
CSCC[C@@H]1NC(=O)[C@H](Cc2c[nH]c3ccccc23)NC(=O)[C@H](CCCCN)NC(=O)[C@H](CCC(N)=O)NC(=O)[C@@H](NC(=O)[C@@H](N)Cc2ccc(O)cc2)CSSC[C@@H]2NC(=O)[C@@H]3CSSC[C@@H](C(=O)N[C@@H](CCCNC(=N)N)C(=O)N[C@@H](CCCCN)C(=O)N[C@@H](Cc4ccc(O)cc4)C(=O)N[C@@H](CC(C)C)C(N)=O)NC(=O)[C@H](Cc4c[nH]c5ccccc45)NC(=O)[C@H](CC(C)C)NC(=O)[C@H](CCCCN)NC(=O)[C@H](CSSC[C@H](NC(=O)[C@H]([C@@H](C)O)NC(=O)[C@H](Cc4c[nH]c5ccccc45)NC1=O)C(=O)N[C@@H](CC(=O)O)C(=O)N[C@@H](CO)C(=O)N[C@@H](CCCCN)C(=O)N[C@@H](CCCNC(=N)N)C(=O)N[C@@H](C)C(=O)N3)NC(=O)[C@H](CCC(=O)O)NC(=O)[C@H](CC(C)C)NC(=O)CNC(=O)[C@H](CCC(=O)O)NC2=O [compound 238]	241	2817
